Target: T1, Bcl-2 protein (Recombinant Human Bcl-2 Protein) (Homo sapiens, UniProt P10415)
T1 construct: purchased Novus NBP2-34889
Assay: Binding evaluation of mixture library compounds to Bcl-2 using AS-MS (affinity selection mass spectrometry)
Conditions: for ASMS ratio (%) n = 1 / ASMS ratio (%) n = 2: ASMS Ratio(%)=(A−C)/B×100; for ASMS ratio (%) n = 1: replicate n = 1; for ASMS ratio (%) n = 2: replicate n = 2
How it was run: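 ASMS Ratio (%) was calculated as (A−C)/B×100, where A is the protein sample after SEC, B the protein-free sample without SEC and C the protein-free sample after SEC. Each compound was at […] in a 1200-member pool with 20 μM Bcl-2, incubated 1 h at 23° C.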

[1] = AS-MS on the mixture of 1200 library compounds
[2] = AS-MS, mixture of 1200 compounds, Bcl-2

T1 sequence (P10415 whole entry): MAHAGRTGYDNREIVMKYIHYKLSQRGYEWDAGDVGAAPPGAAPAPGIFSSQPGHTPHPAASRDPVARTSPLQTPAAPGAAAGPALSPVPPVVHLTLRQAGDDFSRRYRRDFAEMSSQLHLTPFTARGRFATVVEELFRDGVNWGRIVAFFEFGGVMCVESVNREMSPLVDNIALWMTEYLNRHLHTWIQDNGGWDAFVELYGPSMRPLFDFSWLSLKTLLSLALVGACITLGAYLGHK

`CCOc1cncc(C#Cc2cncc(C(=O)N3CCN(c4ccc(C(=O)NS(=O)(=O)C(C)(C)C)nn4)CC3)c2)c1` [B2L010-01, N-tert-Butylsulfonyl-6-[4-[5-[2-(5-ethoxypyridin-3-yl)ethynyl]pyridine-3-carbonyl]piperazin-1-yl]pyridazine-3-carboxamide] was tested, and the “ASMS ratio (%)” value (n = 1) was 0.0% and the “ASMS ratio (%)” value (n = 2) was 0.0%.

For `CCOc1cncc(C#Cc2cncc(C(=O)N3CCN(c4ccc(C(=O)N(C)CC56CC7CC(CC(C7)C5)C6)cc4)CC3)c2)c1` [B3A032-01, N-(1-Adamantylmethyl)-4-[4-[5-[2-(5-ethoxypyridin-3-yl)ethynyl]pyridine-3-carbonyl]piperazin-1-yl]-N-methylbenzamide], the “ASMS ratio (%) n = 1” value [1] was 9.1% and the “ASMS ratio (%) n = 2” value [1] was −5.1%.

In the case of `CCOc1cncc(-c2cnn(-c3cc(C(=O)N4CCN(c5ccc(C(=O)NCC67CC8CC(CC(C8)C6)C7)cc5)CC4)cc(C(F)(F)F)c3)c2)c1` [B1A044-01, N-(1-Adamantylmethyl)-4-[4-[3-[4-(5-ethoxypyridin-3-yl)pyrazol-1-yl]-5-(trifluoromethyl)benzoyl]piperazin-1-yl]benzamide], the “ASMS ratio (%) n = 1” value [2] is reported as 2.6% and the “ASMS ratio (%) n = 2” value [2] is reported as −1.9%.

In the case of “6-[4-[5-[2-(3-Ethoxyphenyl)ethynyl]pyridine-3-carbonyl]piperazin-1-yl]-N-propylpyridazine-3-carboxamide [B1M001-01]”, the “ASMS ratio (%) n = 1” value [2] is reported as 0.0% and the “ASMS ratio (%) n = 2” value [2] is reported as 0.0%.

`CCOc1cncc(C#Cc2ccccc2CN2CCN(c3ccc(C(=O)NS(=O)(=O)c4ccc(NCCSc5ccccc5)c([N+](=O)[O-])c4)cc3)CC2)c1` [B2Q070-01, 4-[4-[[2-[2-(5-Ethoxypyridin-3-yl)ethynyl]phenyl]methyl]piperazin-1-yl]-N-[3-nitro-4-(2-phenylsulfanylethylamino)phenyl]sulfonylbenzamide] was tested, and the “ASMS ratio (%) n = 1” value (AS-MS, mixture library, Bcl-2) was 14.3% and the “ASMS ratio (%) n = 2” value (AS-MS, mixture library, Bcl-2) was −9.0%.

For `CCOc1cccc(-c2ccc(CN3CCN(c4ccc(C(=O)NS(=O)(=O)CC56CC7CC(CC(C7)C5)C6)nn4)CC3)cc2C)c1` [B2A073-01, N-(1-Adamantylmethylsulfonyl)-6-[4-[[4-(3-ethoxyphenyl)-3-methylphenyl]methyl]piperazin-1-yl]pyridazine-3-carboxamide], the “ASMS ratio (%) n = 1” value (AS-MS, mixture library, Bcl-2) was 16.2% and the “ASMS ratio (%) n = 2” value (AS-MS, mixture library, Bcl-2) was 13.5%.

With `CCOc1cncc(C#Cc2ccccc2CN2CCN(c3ccc(C(=O)NS(=O)(=O)C(C)(C)C)nn3)CC2)c1` [B2L096-01, N-tert-Butylsulfonyl-6-[4-[[2-[2-(5-ethoxypyridin-3-yl)ethynyl]phenyl]methyl]piperazin-1-yl]pyridazine-3-carboxamide] the “ASMS ratio (%)” value (n = 1) was 0.0% and the “ASMS ratio (%)” value (n = 2) was 0.0%.

For `CCOc1cccc(-c2ccc(CN3CCN(c4ccc(C(=O)NCC(F)(F)F)cc4)CC3)c3ccccc23)c1` [B1K065-01, 4-[4-[[4-(3-Ethoxyphenyl)naphthalen-1-yl]methyl]piperazin-1-yl]-N-(2,2,2-trifluoroethyl)benzamide], the “ASMS ratio (%) n = 1” value [2] was 5.9% and the “ASMS ratio (%) n = 2” value [2] was −5.6%.

With `CCOc1cncc(-c2ccccc2CCC(=O)N2CCN(c3ccc(C(=O)NS(=O)(=O)c4ccc(NCCSc5ccccc5)c(C(F)(F)F)c4)nn3)CC2)c1` [B2R012-01, 6-[4-[3-[2-(5-Ethoxypyridin-3-yl)phenyl]propanoyl]piperazin-1-yl]-N-[4-(2-phenylsulfanylethylamino)-3-(trifluoromethyl)phenyl]sulfonylpyridazine-3-carboxamide] the “ASMS ratio (%)” value (n = 1) was 15.8% and the “ASMS ratio (%)” value (n = 2) was 13.5%.

`CCOc1cccc(-c2ccc(C(=O)N3CCN(c4ccc(C(=O)NS(C)(=O)=O)cc4)CC3)cc2F)c1` [B2I027-01, 4-[4-[4-(3-Ethoxyphenyl)-3-fluorobenzoyl]piperazin-1-yl]-N-methylsulfonylbenzamide] was tested, and the “ASMS ratio (%) n = 1” value (AS-MS, mixture library, Bcl-2) was 0.0% and the “ASMS ratio (%) n = 2” value (AS-MS, mixture library, Bcl-2) was 0.0%.

In the case of `CCOc1cncc(-c2ccc(CN3CCN(c4ccc(C(=O)NS(=O)(=O)C(C)(C)C)nn4)CC3)cc2F)c1` [B2L078-01], the “ASMS ratio (%)” value (n = 1) is reported as 1.1% and the “ASMS ratio (%)” value (n = 2) is reported as −0.7%.

`CCOc1cccc(-c2ccc(C(C)N3CCN(c4ccc(C(=O)N(CC)CC)cc4)CC3)cc2)c1` (centres unmarked) [B4J097-01, 4-[4-[1-[4-(3-Ethoxyphenyl)phenyl]ethyl]piperazin-1-yl]-N,N-diethylbenzamide] was tested, and the “ASMS ratio (%) n = 1” value (AS-MS, mixture library, Bcl-2) was −0.9% and the “ASMS ratio (%) n = 2” value (AS-MS, mixture library, Bcl-2) was −0.4%.

In the case of “6-[4-[[3-(3-Ethoxyphenyl)-5-propan-2-yloxyphenyl]methyl]piperazin-1-yl]-N-propylpyridazine-3-carboxamide [B1M016-01]”, the “ASMS ratio (%) n = 1” value [2] is reported as 0.0% and the “ASMS ratio (%) n = 2” value [2] is reported as 0.0%.

For `CCOc1cccc(C#Cc2ccccc2CN2CCN(c3ccc(C(=O)NS(=O)(=O)CC45CC6CC(CC(C6)C4)C5)cc3)CC2)c1` [B2A069-01, N-(1-Adamantylmethylsulfonyl)-4-[4-[[2-[2-(3-ethoxyphenyl)ethynyl]phenyl]methyl]piperazin-1-yl]benzamide], the “ASMS ratio (%) n = 1” value (AS-MS, mixture library, Bcl-2) was 4.6% and the “ASMS ratio (%) n = 2” value (AS-MS, mixture library, Bcl-2) was −4.6%.

With `CCOc1cccc(-c2ccc(CN3CCN(c4ccc(C(=O)NCC(F)(F)F)nn4)CC3)c(OC)c2)c1` [B1K079-01, 6-[4-[[4-(3-Ethoxyphenyl)-2-methoxyphenyl]methyl]piperazin-1-yl]-N-(2,2,2-trifluoroethyl)pyridazine-3-carboxamide] the “ASMS ratio (%) n = 1” value [2] was 2.2% and the “ASMS ratio (%) n = 2” value [2] was −1.3%.

In the case of `CCOc1cccc(-c2ccc(C(=O)N3CCN(c4ccc(C(=O)NS(=O)(=O)c5ccc(NCCSc6ccccc6)c([N+](=O)[O-])c5)cc4)CC3)cc2C)c1` [B2Q025-01, 4-[4-[4-(3-Ethoxyphenyl)-3-methylbenzoyl]piperazin-1-yl]-N-[3-nitro-4-(2-phenylsulfanylethylamino)phenyl]sulfonylbenzamide], the “ASMS ratio (%) n = 1” value (AS-MS, mixture library, Bcl-2) is reported as −5.7% and the “ASMS ratio (%) n = 2” value (AS-MS, mixture library, Bcl-2) is reported as 0.0%.

`CCOc1cncc(C#Cc2ccccc2CN2CCN(c3ccc(C(=O)N(CC)CC)nn3)CC2)c1` [B4J096-01] was tested, and the “ASMS ratio (%) n = 2” value (AS-MS, mixture library, Bcl-2) was 0.0%.

`CCOc1cccc(C#Cc2ccccc2C(=O)N2CCN(c3ccc(C(=O)Nc4ccc(OC)cc4)cc3)CC2)c1` [B1O029-01, 4-[4-[2-[2-(3-Ethoxyphenyl)ethynyl]benzoyl]piperazin-1-yl]-N-(4-methoxyphenyl)benzamide] was tested, and the “ASMS ratio (%) n = 1” value [1] was 0.0% and the “ASMS ratio (%) n = 2” value [1] was 0.0%.

For “4-[4-[3-[2-(5-Ethoxypyridin-3-yl)phenyl]propanoyl]piperazin-1-yl]-N-propylbenzamide [B1M078-01]”, the “ASMS ratio (%) n = 1” value [2] was 0.0% and the “ASMS ratio (%) n = 2” value [2] was 0.0%.

With `CCOc1cccc(C#Cc2cncc(C(=O)N3CCN(c4ccc(C(=O)NCC(F)(F)F)cc4)CC3)c2)c1` [B1K031-01, 4-[4-[5-[2-(3-Ethoxyphenyl)ethynyl]pyridine-3-carbonyl]piperazin-1-yl]-N-(2,2,2-trifluoroethyl)benzamide] the “ASMS ratio (%) n = 1” value [2] was 0.0% and the “ASMS ratio (%) n = 2” value [2] was 0.0%.

In the case of `CCOc1cccc(C#Cc2ccccc2C(=O)N2CCN(c3ccc(C(=O)Nc4ccc(OC)cc4)nn3)CC2)c1` [B1O007-01, 6-[4-[2-[2-(3-Ethoxyphenyl)ethynyl]benzoyl]piperazin-1-yl]-N-(4-methoxyphenyl)pyridazine-3-carboxamide], the “ASMS ratio (%) n = 1” value [1] is reported as 4.5% and the “ASMS ratio (%) n = 2” value [1] is reported as 0.9%.

With `CCOc1cncc(-c2cc(C(=O)N3CCN(c4ccc(C(=O)NS(=O)(=O)C(C)(C)C)cc4)CC3)cc(C(F)(F)F)c2)c1` [B2L040-01, N-tert-Butylsulfonyl-4-[4-[3-(5-ethoxypyridin-3-yl)-5-(trifluoromethyl)benzoyl]piperazin-1-yl]benzamide] the “ASMS ratio (%)” value (n = 1) was −0.2% and the “ASMS ratio (%)” value (n = 2) was 1.0%.

With `CCOc1cccc(-c2cc(CN3CCN(c4ccc(C(=O)Nc5ccc(OC)cc5)nn4)CC3)cc(OC(C)C)c2)c1` [B1O083-01, 6-[4-[[3-(3-Ethoxyphenyl)-5-propan-2-yloxyphenyl]methyl]piperazin-1-yl]-N-(4-methoxyphenyl)pyridazine-3-carboxamide] the “ASMS ratio (%) n = 1” value [1] was 7.2% and the “ASMS ratio (%) n = 2” value [1] was 1.0%.

`CCOc1cncc(-c2cc(CN3CCN(c4ccc(C(=O)NS(=O)(=O)c5ccc(NCCSc6ccccc6)c(C(F)(F)F)c5)cc4)CC3)cc(OC(F)(F)F)c2)c1` [B2R064-01, 4-[4-[[3-(5-Ethoxypyridin-3-yl)-5-(trifluoromethoxy)phenyl]methyl]piperazin-1-yl]-N-[4-(2-phenylsulfanylethylamino)-3-(trifluoromethyl)phenyl]sulfonylbenzamide] was tested, and the “ASMS ratio (%)” value (n = 1) was 4.2% and the “ASMS ratio (%)” value (n = 2) was −7.4%.

In the case of `CCOc1cccc(-c2ccc(CN3CCN(c4ccc(C(=O)NS(=O)(=O)CC56CC7CC(CC(C7)C5)C6)cc4)CC3)c(CC)c2)c1` [B2A049-01, N-(1-Adamantylmethylsulfonyl)-4-[4-[[4-(3-ethoxyphenyl)-2-ethylphenyl]methyl]piperazin-1-yl]benzamide], the “ASMS ratio (%) n = 1” value (AS-MS, mixture library, Bcl-2) is reported as −3.0% and the “ASMS ratio (%) n = 2” value (AS-MS, mixture library, Bcl-2) is reported as 6.2%.

With `CCOc1cncc(-c2ccc(CN3CCN(c4ccc(C(=O)NCC56CC7CC(CC(C7)C5)C6)cc4)CC3)c(CC)c2)c1` [B1A050-01, N-(1-Adamantylmethyl)-4-[4-[[4-(5-ethoxypyridin-3-yl)-2-ethylphenyl]methyl]piperazin-1-yl]benzamide] the “ASMS ratio (%) n = 1” value [2] was 0.6% and the “ASMS ratio (%) n = 2” value [2] was 3.0%.

With `CCOc1cccc(-c2ccc(CN3CCN(c4ccc(C(=O)NS(C)(=O)=O)cc4)CC3)cc2F)c1` [B2I051-01, 4-[4-[[4-(3-Ethoxyphenyl)-3-fluorophenyl]methyl]piperazin-1-yl]-N-methylsulfonylbenzamide] the “ASMS ratio (%)” value (n = 1) was 0.0% and the “ASMS ratio (%)” value (n = 2) was 0.0%.
